# Tests used:
# firefly luciferase = firefly luciferase (Photinus pyralis, UniProt P08659); conditions: strong inhibitor of the luciferase; read-out: IC50 as inhibitor of light production; cited from earlier work
# [1] = tested on: firefly luciferase-luciferin reaction; experiment: light production and light duration in vitro (test tube mixture, photos analysed by Image J); type: biochemical; conditions: for light duration extended by: PLGA-LH2 1 mM, CS-CoA 625 μM
# living watercress plant = experiment: light emission in living watercress plant after LIN/PBIN infiltration of nanoparticles; type: in vivo, watercress (Nasturtium officinale); conditions: 1-2 hours compared to 30 minutes incubation of SNP-Luc (LIN) before free luciferin 0.1 mM
# Procedure: Leaf discs of spinach plants 3 week-olds were infiltrated with 30 mM HEPES buffer (pH 7.4) via PBIN at speed of 0.4 bar/s and cell membranes were stained with FM 464 fluorescent dye (red).
# SNP-Luc was infiltrated by LIN 1 h in advance, and PLGA-LH alone or PLGA-LH and CS-CoA were infused into a watercress plant by PBIN. […] To extend the illumination time, the third nanoparticle class, CS-CoA, was co-infiltrated with PLGA-LH by PBIN. […] In FIG. 3E, a and b represent concentration of SNP-Luc (μM) and concentration of PLGA-LH2 (mM), respectively. […] Maximum number of photons/sec was obtained from the first photo (analyzed by Image J). […]
# Infiltration of nanoparticles in living plants. […] The pressure was monitored by digital hydronic manometer (Dwyer instruments, IN, USA). […]
# Estimation of photon numbers from light emitting plants. The power of LED light was first measured at 12.70 cm away using a photo-detector (λ=530 nm, detector surface area=1 cm^2) (PM100, ThorLabs, NJ, USA). The number of photons incident on the photo-detector was determined using the measured power (10 nW) divided by the energy of a single photon at 530 nm, given by the equation below
# An image of the LED light was taken at 68.58 cm of distance with 1/1000 s exposure to avoid saturation of pixels and converted into quantitative values using ImageJ (Mean value=0.016).
# firefly luciferase, sequence (P08659 whole entry): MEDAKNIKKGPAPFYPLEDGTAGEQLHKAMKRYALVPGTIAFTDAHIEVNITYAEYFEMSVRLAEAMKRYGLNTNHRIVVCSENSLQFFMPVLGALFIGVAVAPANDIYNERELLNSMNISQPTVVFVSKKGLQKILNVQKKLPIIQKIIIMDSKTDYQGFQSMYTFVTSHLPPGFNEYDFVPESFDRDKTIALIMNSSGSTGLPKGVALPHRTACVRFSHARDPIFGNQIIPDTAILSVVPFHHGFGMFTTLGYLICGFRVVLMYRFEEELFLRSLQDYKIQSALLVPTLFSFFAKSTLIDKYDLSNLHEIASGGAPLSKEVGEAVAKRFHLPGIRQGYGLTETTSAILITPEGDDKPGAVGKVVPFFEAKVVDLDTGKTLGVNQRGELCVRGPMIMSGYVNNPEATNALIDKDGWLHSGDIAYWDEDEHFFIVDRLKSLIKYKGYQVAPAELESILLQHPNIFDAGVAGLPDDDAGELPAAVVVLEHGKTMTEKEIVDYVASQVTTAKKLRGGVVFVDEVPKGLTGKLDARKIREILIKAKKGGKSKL
light duration extended by ([1]; 200 nM SNP-Luc),light duration extended by ([1]; 4 μM SNP-Luc),Compound,IC50 (firefly luciferase),"light duration compared with free luciferase ([1]; 1 mL mixture, 12 nM luciferase, 100 μM luciferin, 100 μM ATP)","initial number of photons, times higher (living watercress plant)"
,,Nc1ncnc2c1ncn2C1OC(COP(=O)(O)OC(=O)c2csc(-c3nc4ccc(O)cc4s3)n2)C(O)C1O (centres unmarked) [dehydroluciferyl-adenylate],5 nM,,
22 h,6 h,SNP-Luc: firefly luciferase immobilized on 7 nm GPTS-PEG amine silica nanoparticles,,longer light duration than that of free luciferase,4 to 7 times

# — patent US20180317415A1, “NANOBIONIC LIGHT EMITTING PLANTS” (MASSACHUSETTS INSTITUTE OF TECHNOLOGY, priority 2015, published 2018)
